# Publication PMC3666196, “Formulation and Particle Size Reduction Improve Bioavailability of Poorly Water-Soluble Compounds with Antimalarial Activity” (Malaria Research and Treatment, 2013)
# Assays:
# [1] = Particle size measurement by laser scattering (Horiba LA-950) and stability of suspensions stored at 4°C; type: physicochemical
# Protocol: The particle size was measured using a Horiba LA-950 particle size distribution analyzer (Kyoto, Japan), based on laser scattering. This particular instrument has a measurement period of less than 2 minutes from introduction of sample to data presentation with a sample requirement for testing of 2–5 mg per measurement in a 150 mL flow cell, depending on the sample type. All DQ and WR2996666 preparations were measured at a range of transmittance between 80–90%. Various volumes ranging from 100 μL to 800 μL of samples with about 5–10 mg solid from each vial were tested in this instrument to determine the mean particle size, which was the particle size parameter referred in the results. In order to see the change of particle size of various preparations over time, an accelerated stability study of prepared micro- and nanosuspensions were carried out at a temperature of 4°C for a period of up to 3 weeks. Accurately weighed amounts of samples were placed into glass vials with aluminum-lined caps and stored in a microprocessor-controlled humidity chamber, and the samples were then characterized as a function of exposed time. The stability of particles shown in Tables 1 and 2 was some of the preparations evaluated in this study. Generally, the particles in aqueous suspension dosed in our animals were stable for at least 3 weeks.
# [2] = HPLC check of drug integrity after formulation and HPH; type: physicochemical; conditions: any of the preparations including microparticles and nanoparticles
# Protocol: The rehydrated DQ nanoparticle formulations were evaluated by particle size measurement, determination of drug concentration in the whole suspension as well as in the fine particles less than […], and PK study in drug dosed animals. The particle size was monitored throughout the preparation procedure and before and after animal studies. To ensure that there was no change of the drug integrity in any of the formulation procedure, drug concentrations and chromatography profiles of the drug molecule identity were examined by an Agilent HPLC (Agilent Technologies, Foster City, CA) with an isocratic mobile phase of 20% water and 80% acetonitrile (0.1% formic acid contained in water and acetonitrile, resp.). All drug preparations in aqueous system were diluted in methanol with vigorous vortex and then in acetonitrile for HPLC analysis. This was done to obtain complete extraction of the compound prior to loading the samples to HPLC. To evaluate the amount of DQ in the fine particles, formulation suspensions were prepared in the amount of 10 mg/mL of DQ in water, incubated at 37°C for 2 hours and passed through a […] size filter. […] In order to determine the actual dosage of the drug for animal studies, the concentration of the drug used for dosing animals was determined by HPLC without prior particle size fractionation with filtration.
# [3] = parameters: method as in earlier work; conditions: buffered water pH 4–9; cited from earlier work
# [4] = parameters: method as in PMID 11000543; conditions: formulated into various solid dispersions; cited from earlier work
compound,measurement,setting,value
"CCCCCCCCCCOc1cc2c(O)c(C(=O)OCC)cnc2cc1OCC [DQ, ethyl 6-decyloxy-7-ethoxy-4-hydroxy-3-quinolinecarboxylate, reference compound]",Particle size of generated nanoparticles,"[1]; DQ formulation with poloxamer 407 as surfactant, after HPH",> 0.5 μm
same,Particle size,"[1]; DQ in water or HECT suspension, method HG (homogenizer with generator), stored at 4°C, Week 1",99.23 μm
same,Particle size,"[1]; DQ suspension in HECT, method US (ultra-sonicator), stored at 4°C, Week 1",36.62 μm
same,Particle size,"[1]; DQ suspension, method HG, stored at 4°C, Mean of weeks 1-3",102.04 μm
same,Particle size,"[1]; DQ suspension, method HG, stored at 4°C, Week 2",101.33 μm
same,Particle size,"[1]; DQ suspension, method HG, stored at 4°C, Week 3",105.56 μm
same,Particle size,"[1]; DQ suspension, method US, stored at 4°C, Mean of weeks 1-3",36.88 μm
same,Particle size,"[1]; DQ suspension, method US, stored at 4°C, Week 2",36.97 μm
same,Particle size,"[1]; DQ suspension, method US, stored at 4°C, Week 3",36.92 μm
same,Particle size,"[1]; DQ, method SD (solid dispersion) plus HPH, in water, stored at 4°C, Week 1",0.401 μm
same,Particle size,"[1]; DQ, method SD plus HPH, stored at 4°C, Mean of weeks 1-3",0.392 μm
same,Particle size,"[1]; DQ, method SD plus HPH, stored at 4°C, Week 2",0.384 μm
same,Particle size,"[1]; DQ, method SD plus HPH, stored at 4°C, Week 3",0.377 μm
same,Particle size of DQ formulations,"[1]; solid dispersion with polymers and surfactants, sonication followed by HPH at 1500–2500 bars, 120 homogenization cycles",0.2–0.4 μm
same,"Chromatography profile (mass quantity, retention time) after formulation process and HPH",[2],no change in chromatography profile
same,Solubility in water,[3],< 0.01 µg/mL
"[H]/N=C(/N=C1NC(=O)C(=O)N1C)Nc1ccc(Cl)c(Cl)c1 [WR299666, (E)-1-(3,4-dichlorophenyl)-3-(1-methyl-4,5-dioxoimidazolidin-2-ylidene) guanidine]",Particle size,"[1]; WR299666, HPH at 2500 bars in 6 homogenization cycles",0.38–0.48 μm
same,Particle size,"[1]; WR299666 in water or HECT suspension, method Grinder, stored at 4°C, Week 1",42.54 μm
same,Particle size,"[1]; WR299666 suspension, method Grinder, stored at 4°C, Mean of weeks 1-3",42.22 μm
same,Particle size,"[1]; WR299666 suspension, method Grinder, stored at 4°C, Week 2",41.07 μm
same,Particle size,"[1]; WR299666 suspension, method Grinder, stored at 4°C, Week 3",43.05 μm
same,Particle size,"[1]; WR299666 suspension, method HG, stored at 4°C, Mean of weeks 1-3",61.88 μm
same,Particle size,"[1]; WR299666 suspension, method HG, stored at 4°C, Week 1",66.31 μm
same,Particle size,"[1]; WR299666 suspension, method HG, stored at 4°C, Week 2",71.85 μm
same,Particle size,"[1]; WR299666 suspension, method HG, stored at 4°C, Week 3",47.49 μm
same,Particle size,"[1]; WR299666 suspension, method HPH, stored at 4°C, Mean of weeks 1-3",0.406 μm
same,Particle size,"[1]; WR299666 suspension, method HPH, stored at 4°C, Week 1",0.376 μm
same,Particle size,"[1]; WR299666 suspension, method HPH, stored at 4°C, Week 2",0.397 μm
same,Particle size,"[1]; WR299666 suspension, method HPH, stored at 4°C, Week 3",0.445 μm
same,Particle size,"[1]; WR299666 suspension, method US, stored at 4°C, Mean of weeks 1-3",1.5 μm
same,Particle size,"[1]; WR299666 suspension, method US, stored at 4°C, Mean of weeks 1-3, listed as W299666",1.50 μm
same,Particle size,"[1]; WR299666 suspension, method US, stored at 4°C, Week 1",1.52 μm
same,Particle size,"[1]; WR299666 suspension, method US, stored at 4°C, Week 2",1.58 μm
same,Particle size,"[1]; WR299666 suspension, method US, stored at 4°C, Week 3",1.41 μm
same,Average particle size of starting raw material,[1]; without treatment,above 70 μm
CCCCN(CCCC)CCC(O)c1cc2c(Cl)cc(Cl)cc2c2cc(C(F)(F)F)ccc12 (stereo not drawn) [halofantrine],Increase in absolute bioavailability,[4],five- to seven
